Reference: patent US8445690B2, “Aminothiazolones as estrogen related receptor-alpha modulators” (Janssen Pharmaceutica NV, priority 2010, dated 2013)

Target: T1, ERR1 (also known as ERR-α or ERR-1) (Homo sapiens, UniProt P11474)
T1 sequence (P11474 193-421 limits assumed): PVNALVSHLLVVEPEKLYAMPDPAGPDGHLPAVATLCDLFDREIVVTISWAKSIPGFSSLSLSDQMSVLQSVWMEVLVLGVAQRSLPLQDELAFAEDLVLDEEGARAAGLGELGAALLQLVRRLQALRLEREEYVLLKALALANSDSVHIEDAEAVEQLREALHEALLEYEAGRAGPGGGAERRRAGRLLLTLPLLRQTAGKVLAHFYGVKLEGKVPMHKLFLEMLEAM
Assay: TR-FRET assay: disruption of co-activator peptide (GST-hSRC2) binding to 6His-tagged ERR1 LBD
Assay type: biochemical
Conditions: 6 nM ERR1LBD, 6 nM GST-SRC-2 peptide, 25° C., 4-18 hours; average of 3 independent experiments
Experimental: Time-Resolved Fluorescence Resonance Energy Transfer (TR-FRET) experiments were performed to examine the functional response of ERR1 (also known as ERR-α or ERR-1) ligands. The TR-FRET assay described herein relied on the conformation of ERR1 for binding to a co-activator peptide: when a test compound binds to ERR1 and alters its conformation, it can disrupt the binding of the co-activator peptide. The components of this homogeneous secondary assay included: the ^6His-tagged-ERR1LBD, a GST-labeled-hSRC2 co-activator polypeptide and a fluorescent donor/acceptor pair from CIS bio international htrf/bioassays (Bedford, Mass.) using both an α-GST Europium Cryptate (Eu) label and an α^6His-XL665 (allophycocyanin) fluorophore.
For TR-FRET measurements, the reaction was buffered in 25 mM Tris pH 8, 2.5 mM Hepes, 20 mM KCl, 1 mM DTT, and 0.05 mg/mL BSA (-lipids). The final concentrations of reagents were 6 nM of ERR1LBD, 6 nM GST-SRC-2 peptide, 30 nM Eu cryptate, and 7.5 nM XL665. Reactions were allowed to reach equilibrium at 25° C. for 4-18 hours before collecting data on the Analyst from LJL Biosystems (Molecular Devices Sunnyvale, Calif.). As a time-resolved method, the samples were excited at […] and emission was collected for 1 ms at both 615 and 665 nm with delays of 400 and 75 μs, respectively. Dose response curves were fitted using a hyperbolic equation and the data reported is the average of 3 independent experiments.
Compounds listed in Tables II below were tested in the above assay, and they are all active modulators of ERR1.

SMILES | EC50 [µM]
Cc1nnc(CNC2=NC(=O)/C(=C/c3ccc4c(cnn4Cc4ccc(C(F)(F)F)cc4C(F)(F)F)c3)S2)[nH]1 [Compound 36, 5-[1-(2,4-Bis-trifluoromethyl-benzyl)-1H-indazol-5-ylmethylene]-2-[(5-methyl-4H-[1,2,4]triazol-3-ylmethyl)-amino]-thiazol-4-one] | 0.0048
O=C1N=C(N[C@H]2CC[C@@H](C(=O)O)CC2)S/C1=C\c1ccc2c(cnn2Cc2ccc(Cl)cc2C(F)(F)F)c1 [Compound 44, (S,S)-4-{5-[1-(4-Chloro-2-trifluoromethyl-benzyl)-1H-indazol-5-ylmethylene]-4-oxo-4,5-dihydro-thiazol-2-ylamino}-cyclohexanecarboxylic acid] | 0.015
O=C(O)CC(O)CNC1=NC(=O)/C(=C/c2ccc3c(cnn3Cc3ccc(Cl)cc3C(F)(F)F)c2)S1 (centres unmarked) [Compound 46, 4-{5-[1-(4-Chloro-2-trifluoromethyl-benzyl)-1H-indazol-5-ylmethylene]-4-oxo-4,5-dihydro-thiazol-2-ylamino}-3-hydroxy-butyric acid] | 0.022
O=C(O)CCCNC1=NC(=O)/C(=C/c2ccc3c(cnn3Cc3ccc(Cl)cc3C(F)(F)F)c2)S1 [Compound 37, 4-{5-[1-(4-Chloro-2-trifluoromethyl-benzyl)-1H-indazol-5-ylmethylene]-4-oxo-4,5-dihydro-thiazol-2-ylamino}-butyric acid] | 0.018
O=C1CN(CCNC2=NC(=O)/C(=C/c3ccc4c(cnn4Cc4ccc(C(F)(F)F)cc4C(F)(F)F)c3)S2)CCN1 [Compound 16, 4-(2-{5-[1-(2,4-Bis-trifluoromethyl-benzyl)-1H-indazol-5-ylmethylene]-4-oxo-4,5-dihydro-thiazol-2-ylamino}-ethyl)-piperazin-2-one] | 0.0025
Cc1nnc(CNC2=NC(=O)/C(=C/c3ccc4c(cnn4Cc4ccc(Cl)cc4C(F)(F)F)c3)S2)[nH]1 [Compound 35, 5-[1-(4-Chloro-2-trifluoromethyl-benzyl)-1H-indazol-5-ylmethylene]-2-[(5-methyl-4H-[1,2,4]triazol-3-ylmethyl)-amino]-thiazol-4-one] | 0.0112
COc1ccc(Cn2ncc3cc(/C=C4\SC(NCCN5CCOCC5)=NC4=O)ccc32)c(C(F)(F)F)c1 [Compound 5, 5-[1-(4-Methoxy-2-trifluoromethyl-benzyl)-1H-indazol-5-ylmethylene]-2-(2-morpholin-4-yl-ethylamino)-thiazol-4-one] | 0.0032
O=C1N=C(NCCN2CCOCC2)S/C1=C\c1ccc2c(cnn2Cc2ccc(C(F)(F)F)cc2C(F)(F)F)c1 [Compound 12, 5-[1-(2,4-Bis-trifluoromethyl-benzyl)-1H-indazol-5-ylmethylene]-2-(2-morpholin-4-yl-ethylamino)-thiazol-4-one] | 0.015
O=C1N=C(NCCn2ccnc2)S/C1=C\c1ccc2c(cnn2Cc2ccc(Cl)cc2C(F)(F)F)c1 [Compound 24, 5-[1-(4-Chloro-2-trifluoromethyl-benzyl)-1H-indazol-5-ylmethylene]-2-(2-imidazol-1-yl-ethylamino)-thiazol-4-one] | 0.012
O=C1N=C(N[C@@H]2CN3CCC2CC3)S/C1=C\c1ccc2c(cnn2Cc2ccc(C(F)(F)F)cc2C(F)(F)F)c1 [Compound 29, 2-(1-Aza-bicyclo[2.2.2]oct-3(S)-ylamino)-5-[1-(2,4-bis-trifluoromethyl-benzyl)-1H-indazol-5-ylmethylene]-thiazol-4-one] | 0.039
CN(C)CCCNC1=NC(=O)/C(=C/c2ccc3c(cnn3Cc3ccc(F)cc3C(F)(F)F)c2)S1 [Compound 1, 2-(3-Dimethylamino-propylamino)-5-[1-(4-fluoro-2-trifluoromethyl-benzyl)-1H-indazol-5-ylmethylene]-thiazol-4-one] | 0.077
O=C1N=C(Nc2cccnc2)S/C1=C\c1ccc2c(cnn2Cc2ccc(Cl)cc2C(F)(F)F)c1 [Compound 20, 5-[1-(4-Chloro-2-trifluoromethyl-benzyl)-1H-indazol-5-ylmethylene]-2-(pyridin-3-ylamino)-thiazol-4-one] | 0.0194
COc1ccc(Cn2ncc3cc(/C=C4\SC(NCCN5CCCC5)=NC4=O)ccc32)c(C(F)(F)F)c1 [Compound 6, 5-[1-(4-Methoxy-2-trifluoromethyl-benzyl)-1H-indazol-5-ylmethylene]-2-(2-pyrrolidin-1-yl-ethylamino)-thiazol-4-one] | 0.0045
COc1ccc(Cn2ncc3cc(/C=C4\SC(NCCn5cncn5)=NC4=O)ccc32)c(C(F)(F)F)c1 [Compound 18, 5-[1-(4-Methoxy-2-trifluoromethyl-benzyl)-1H-indazol-5-ylmethylene]-2-(2-[1,2,4]triazol-1-yl-ethylamino)-thiazol-4-one] | 0.0018
O=C1N=C(NC2(C(=O)O)CC2)S/C1=C\c1ccc2c(cnn2Cc2ccc(Cl)cc2C(F)(F)F)c1 [Compound 45, 1-{5-[1-(4-Chloro-2-trifluoromethyl-benzyl)-1H-indazol-5-ylmethylene]-4-oxo-4,5-dihydro-thiazol-2-ylamino}-cyclopropanecarboxylic acid] | 0.0097
O=C1N=C(N[C@H]2CN3CCC2CC3)S/C1=C\c1ccc2c(cnn2Cc2ccc(Cl)cc2C(F)(F)F)c1 [Compound 28, 2-(1-Aza-bicyclo[2.2.2]oct-3(R)-ylamino)-5-[1-(4-chloro-2-trifluoromethyl-benzyl)-1H-indazol-5-ylmethylene]-thiazol-4-one] | 0.006
CN1CCN(CCNC2=NC(=O)/C(=C/c3ccc4c(cnn4Cc4ccc(Cl)cc4C(F)(F)F)c3)S2)CC1 [Compound 39, 5-[1-(4-Chloro-2-trifluoromethyl-benzyl)-1H-indazol-5-ylmethylene]-2-[2-(4-methyl-piperazin-1-yl)-ethylamino]-thiazol-4-one] | 0.0066
O=C1N=C(NC(CO)CO)S/C1=C\c1ccc2c(cnn2Cc2ccc(Cl)cc2C(F)(F)F)c1 [Compound 38, 5-[1-(4-Chloro-2-trifluoromethyl-benzyl)-1H-indazol-5-ylmethylene]-2-(2-hydroxy-1-hydroxymethyl-ethylamino)-thiazol-4-one] | 0.0568
CN1CCN(CCNC2=NC(=O)/C(=C/c3ccc4c(c3)c(I)nn4Cc3ccc(C(F)(F)F)cc3C(F)(F)F)S2)CC1 [Compound 48, 5-({1-[2,4-Bis(trifluoromethyl)benzyl]-3-iodo-1H-indazol-5-yl}methylidene)-2-{[2-(4-methylpiperazin-1-yl)ethyl]amino}-1,3-thiazol-4(5H)-one] | 0.005
O=C1N=C(N[C@H]2CCNC2)S/C1=C\c1ccc2c(cnn2Cc2ccc(Cl)cc2C(F)(F)F)c1 [Compound 21, 5-[1-(4-Chloro-2-trifluoromethyl-benzyl)-1H-indazol-5-ylmethylene]-2-(pyrrolidin-3S-ylamino)-thiazol-4-one] | 0.0046
O=C1CN(CCNC2=NC(=O)/C(=C/c3ccc4c(cnn4Cc4ccc(Cl)cc4C(F)(F)F)c3)S2)CCN1 [Compound 19, 4-(2-{5-[1-(4-Chloro-2-trifluoromethyl-benzyl)-1H-indazol-5-ylmethylene]-4-oxo-4,5-dihydro-thiazol-2-ylamino}-ethyl)-piperazin-2-one] | 0.011
COc1ccc(Cn2ncc3cc(/C=C4\SC(NC[C@@H](O)CO)=NC4=O)ccc32)c(C(F)(F)F)c1 [Compound 10, 2-(2R,3-Dihydroxy-propylamino)-5-[1-(4-methoxy-2-trifluoromethyl-benzyl)-1H-indazol-5-ylmethylene]-thiazol-4-one] | 0.0049
O=C1N=C(NCc2c[nH]nn2)S/C1=C\c1ccc2c(cnn2Cc2ccc(C(F)(F)F)cc2C(F)(F)F)c1 [Compound 43, 5-[1-(2,4-Bis-trifluoromethyl-benzyl)-1H-indazol-5-ylmethylene]-2-[(1H-[1,2,3]triazol-4-ylmethyl)-amino]-thiazol-4-one] | 0.019
O=C1N=C(NCCn2cncn2)S/C1=C\c1ccc2c(cnn2Cc2ccc(C(F)(F)F)cc2C(F)(F)F)c1 [Compound 17, 5-[1-(2,4-Bis-trifluoromethyl-benzyl)-1H-indazol-5-ylmethylene]-2-(2-[1,2,4]triazol-1-yl-ethylamino)-thiazol-4-one] | 0.0076
O=C1N=C(NCc2nn[nH]n2)S/C1=C\c1ccc2c(cnn2Cc2ccc(C(F)(F)F)cc2C(F)(F)F)c1 [Compound 15, 5-[1-(2,4-Bis-trifluoromethyl-benzyl)-1H-indazol-5-ylmethylene]-2-[(2H-tetrazol-5-ylmethyl)-amino]-thiazol-4-one] | 0.0039
O=C1N=C(NCCC2CCOCC2)S/C1=C\c1ccc2c(cnn2Cc2ccc(C(F)(F)F)cc2C(F)(F)F)c1 [Compound 33, 5-[1-(2,4-Bis-trifluoromethyl-benzyl)-1H-indazol-5-ylmethylene]-2-[2-(tetrahydro-pyran-4-yl)-ethylamino]-thiazol-4-one] | 0.26
